Data published in US6368788B1 (priority 1987, dated 2002).
Marks after values point to notes of the source that are not given here.

Key:
[1] = Acute osteomyelitis / soft tissue inflammation in children (Protocol C); assay type: in vivo, human
Method: Seventeen hospitalized children (10 boys and 7 girls) were entered into this protocol: 6 with acute inflammatory diseases of soft tissues (abscesses, phlegmons), 4 with odotogenous osteomyelitis of the jaw, and 7 with hematogenous osteomyelitis of the flat and tubular bones. In 11 children, the course of the illness was acute and in 6 it was subacute and chronic.
L-Glu-L-Trp was administered in combination therapy with conventional antibiotic therapies. Where necessary, surgery was performed to drain infectious foci in the jaw or soft tissues, affected teeth were extracted, and for osteomyelitis a port was drilled for infusion of antibiotics. Physical examination and laboratory testing was conducted before administering L-Glu-L-Trp and 2-3 days after the treatment.
Laboratory tests were conducted to determine clinical chemistry and protein values prior to and after therapy (i.e., including the concentrations of bilirubin, creatinine, albumin, cholesterol, urea nitrogen, glucose, protein, chloride, potassium, phosphorus, calcium, sodium, alkaline phosphatase, α1-orosomucoid, α2-macroglobulin, prealbumin, ceruloplasmin, and transferrin). While urea nitrogen and cholesterol decreased slightly after therapy, these and all other changes observed after L-Glu-L-Trp treatment were not statistically significant.

Staphylococci = test: Chronic staphylococcal pyoderma, overview (Protocol A); design: species or system human; conditions: in vivo
Method: The total clinical trial population eventually under examination consisted of 159 patients with pyoderma, including furunculitis, cellulitis, and folliculitis. Trial Protocol A1, below, details some of the results obtained in this trial. Medications were administered either im or intranasally for 5 consecutive days. Peripheral blood immune indices were decreased prior to treatment and following treatment with L-Glu-L-Trp were restored to within the normal range. […] Clinical improvement was correlated with return of the immune parameters to within the normal range of values. In certain patients, L-Glu-L-Trp was also topically applied as a sterile saline solution of medication for a period of 5 to 10 days at a dosage of 1 μg/kg body weight.

Bone fractures = test: Bone fractures; design: species or system human; conditions: in vivo
Method: L-Glu-L-Trp was applied to 44 patients with bone fractures of various origin. The control group comprised 28 patients. L-Glu-L-Trp was administered intramuscularly or intranasally in a single dose of 100 μg daily for 10 days.

E. coli = test: Survival after acute peritonitis with LD100 dose of E. coli; assay type: in vivo, mice
[2] = children, After L-Glu-L-Trp Therapy (2-3 days after treatment)

Substance: L-Glu-L-Trp
- B-Lymphocytes: % of PBL [1, 2]: 15.1 ± 3.32 % of PBL
- B-Lymphocytes: No. [1, 2]: 0.41 ± 0.11 10^9/L
- C3 [1, 2]: 0.72 ± 0.05 g/L
- IgA [1, 2]: 1.68 ± 0.18 g/L
- IgG [1, 2]: 14.4 ± 1.31 g/L
- IgM [1, 2]: 1.64 ± 0.26 g/L
- LMIR: % Con A [1, 2]: 49.7 ± 13.7 %
- LMIR: % PHA [1, 2]: 47.7 ± 11.2 %
- Leukocytes [1, 2]: 7.0 ± 0.4^† 10^9/L
- Lymphocytes: % of PBL [1, 2]: 43 ± 3.61 % of PBL
- Lymphocytes: No. [1, 2]: 3.15 ± 0.41 10^9/L
- Neutrophils [1, 2]: 3.4 ± 0.33 ×10^9/L
- Neutrophils: % PBL [1, 2]: 50 ± 4.8 % PBL
- Null-Lymphocytes: % of PBL [1, 2]: 18.7 ± 4.68 % of PBL
- Null-Lymphocytes: No. [1, 2]: 0.42 ± 0.11^† 10^9/L
- T-Lymphocytes: % of Lym [1, 2]: 66.2 ± 2.57 % of Lym
- T-Lymphocytes: No. [1, 2]: 1.7 ± 0.3 10^9/L
- T-helper (Etr-RFC): % of Lym [1, 2]: 57.3 ± 6.34 % of Lym
- T-helper (Etr-RFC): No. [1, 2]: 1.4 ± 0.24 10^9/L
- T-suppressor: % of Lym [1, 2]: 8.8 ± 5.4 % of Lym
- T-suppressor: No. [1, 2]: 0.3 ± 0.2 10^9/L
- Wounds cleaned and granulated earlier than usual ([1]; in vivo): 2 to 3 days
- Clinical outcome (Staphylococci): disappearance of skin manifestations and resolution of pyoderma
- Clinical outcome (Bone fractures): prevented the development of infectious complications, reduced pain syndrome and treatment duration
- Percentage Survivors (E. coli; 24 hours after injection, Glu-Trp dose 10 μg/kg (alone or + Ampicillin 1 MED)): 83.3* %
- Percentage Survivors (E. coli; 24 hours after injection, Glu-Trp dose 100 μg/kg (alone or + Ampicillin 1 MED)): 77.8*† %
- Percentage Survivors (E. coli; 24 hours after injection, Glu-Trp dose 1000 μg/kg (alone or + Ampicillin 1 MED)): 83.3*† %
- Percentage Survivors (E. coli; 48 hours after injection, Glu-Trp dose 10 μg/kg (alone or + Ampicillin 1 MED)): 11.1%
- Percentage Survivors (E. coli; 48 hours after injection, Glu-Trp dose 100 μg/kg (alone or + Ampicillin 1 MED)): 38.9* %
- Percentage Survivors (E. coli; 48 hours after injection, Glu-Trp dose 1000 μg/kg (alone or + Ampicillin 1 MED)): 44.4* %
- Percentage Survivors (E. coli; 72 hours after injection, Glu-Trp dose 10 μg/kg (alone or + Ampicillin 1 MED)): 11.1%
- Percentage Survivors (E. coli; 72 hours after injection, Glu-Trp dose 100 μg/kg (alone or + Ampicillin 1 MED)): 38.9* %
- Percentage Survivors (E. coli; 72 hours after injection, Glu-Trp dose 1000 μg/kg (alone or + Ampicillin 1 MED)): 44.4* %
